The NIST ThermoML archive (doi:10.1016/j.jct.2008.08.013)
± gives the expanded uncertainty stated by the source.

Settings: 101.33 kPa, Liquid, Vibrating tube method

Structure (SMILES) | mass density (288.15 K) [kg/m3] | mass density (293.15 K) [kg/m3] | mass density (298.15 K) [kg/m3] | mass density (303.15 K) [kg/m3]
Nc1ccccc1 [aniline] | 1025.93 ± 0.1 | 1021.04 ± 0.09 | 1017.1 ± 0.09 | 1012.84 ± 0.09
O=[N+]([O-])c1ccccc1 [nitrobenzene] | 1211.53 ± 0.13 | 1202.61 ± 0.13 | 1198.01 ± 0.12 | 1193.5 ± 0.12
ClCCl [dichloromethane] | 1334.81 ± 0.18 | 1325.67 ± 0.18 | 1316.58 ± 0.17 | 1307.9 ± 0.17
